From publication PMC10313671, “Accelerating the prediction and discovery of peptide hydrogels with human-in-the-loop” (Nature Communications, 2023)
Where a SMILES comes first, the peptide text is derived from it.

How the values were obtained:
[1] = Transmission electron microscope (negative staining) of peptide assemblies; conditions: for Morphology: TEM, negative staining with uranyl acetate, 120 kV; for morphology by TEM (in words): aqueous solution or hydrogel, negative staining
Procedure: We used the negative staining technique to observe the morphologies formed by peptides. A micropipette was used to load 10 μL of sample solution to a carbon-coated copper grid, and we used a piece of filter paper to remove the excess solution. After rinsing the grid with the deionized water, we used uranyl acetate to stain the sample for 1 minute and then rinsed the grid with deionized water again.

[2] = Peptide hydrogel formation, vial-inverting method; format: physicochemical; design: key to EXP / GELATION: 0: no hydrogel; 1: hydrogel; conditions: for State: ultrasonication, standing 48 h; for State / GELATION / hydrogel formation (in words): vial-inverting method; for Concentration: concentration at which the state was recorded: lowest of 30, 60, 90, 120 mM that gave a gel, 120 mM for non-gelating peptides; for GELATION: 1 = hydrogel, 0 = no hydrogel; for hydrogel formation (in words): representative hydrogels pH between 7.0 to 7.5
Summary of the method: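 Tetrapeptides dissolved in ultrapure water at 30 mM, pH brought to 6.5–8.5 with 1 N NaOH stepwise with brief ultrasonication, then left 48 h. Gel defined as self-supporting and non-flowing on vial inversion; non-gelling peptides retested at 60, 90 and 120 mM.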

[3] = 30 mM peptide in ultrapure water, pH adjusted to 6.5-8.5 with 1 N NaOH, concentration raised 30/60/90/120 mM until gelation
[4] = 120 mM peptide (highest tested) in ultrapure water, pH 6.5-8.5 (1 N NaOH), precipitate, sol, suspension = no gel
[5] = 60 mM peptide in ultrapure water, pH 6.5-8.5 (1 N NaOH), no gel at 30 mM

SMILES	Morphology ([1]; line of the table gives 30 mM)	State [2, 3]	Concentration [2] [µM]	Morphology ([1]; line of the table gives 120 mM)	State [2, 4]	GELATION ([2]; peptide concentration 120 mM)	further results
CC(C)[C@H](N)C(=O)N[C@@H](Cc1ccccc1)C(=O)N[C@H](C(=O)N[C@@H](Cc1ccccc1)C(=O)O)C(C)C [VFVF] (H-VFVF-OH)	sheet	gel	30000				GELATION ([2]; peptide concentration 30 mM): 1
CC(C)C[C@H](N)C(=O)N[C@H](C(=O)N[C@@H](Cc1c[nH]cn1)C(=O)N[C@@H](Cc1ccccc1)C(=O)O)C(C)C [LVHF] (H-LVHF-OH)	hybrid(sphere+fibre)	gel	30000				GELATION ([2]; peptide concentration 30 mM): 1
N[C@@H](Cc1ccc(O)cc1)C(=O)N[C@@H](Cc1ccc(O)cc1)C(=O)N[C@@H](Cc1ccc(O)cc1)C(=O)N[C@@H](Cc1ccc(O)cc1)C(=O)O [YYYY] (H-YYYY-OH)			120000	aggregates	sol	0	
CC[C@H](C)[C@H](NC(=O)[C@@H](NC(=O)[C@@H](N)CC(N)=O)[C@@H](C)O)C(=O)N[C@@H](Cc1ccccc1)C(=O)O [NTIF] (H-NTIF-OH)			60000				Morphology ([1]; line of the table gives 60 mM): fibre; State [2, 5]: gel; GELATION ([2]; peptide concentration 60 mM): 1
CC(C)C[C@H](N)C(=O)N[C@H](C(=O)N[C@@H](Cc1ccccc1)C(=O)N[C@@H](Cc1ccccc1)C(=O)O)C(C)C [LVFF]	sphere	gel	30000				GELATION ([2]; peptide concentration 30 mM): 1
N=C(N)NCCC[C@H](NC(=O)[C@H](CCCNC(=N)N)NC(=O)[C@H](CCCNC(=N)N)NC(=O)[C@@H](N)CCCNC(=N)N)C(=O)O [RRRR] (H-RRRR-OH)			120000	aggregates	sol	0	morphology by TEM (in words) [1]: aggregates with different sizes
CC(C)C[C@H](N)C(=O)N[C@H](C(=O)N[C@@H](Cc1c[nH]c2ccccc12)C(=O)N[C@@H](Cc1ccccc1)C(=O)O)[C@@H](C)O [LTWF] (H-LTWF-OH)			120000	aggregates	sol	0	
CC(C)[C@H](NC(=O)[C@@H](N)CC(N)=O)C(=O)N[C@@H](Cc1ccccc1)C(=O)N[C@@H](Cc1c[nH]cn1)C(=O)O [NVFH] (H-NVFH-OH)			120000	aggregates	suspension	0	
CC(C)C[C@H](NC(=O)[C@H](Cc1ccccc1)NC(=O)[C@@H](N)CS)C(=O)N[C@@H](Cc1c[nH]c2ccccc12)C(=O)O [CFLW] (H-CFLW-OH)			120000	aggregates	suspension	0	
CC(C)[C@H](N)C(=O)N[C@@H](CO)C(=O)N[C@@H](Cc1c[nH]c2ccccc12)C(=O)N[C@@H](Cc1ccc(O)cc1)C(=O)O [VSWY] (H-VSWY-OH)			120000	particle	precipitate	0	
CC(C)[C@H](N)C(=O)N[C@@H](C)C(=O)N[C@@H](Cc1ccccc1)C(=O)N[C@@H](Cc1ccc(O)cc1)C(=O)O [VAFY] (H-VAFY-OH)			120000	sphere	gel	1	
CC(C)[C@H](N)C(=O)N[C@@H](Cc1ccccc1)C(=O)N[C@@H](Cc1c[nH]cn1)C(=O)N[C@@H](CC(N)=O)C(=O)O [VFHN] (H-VFHN-OH)			120000	aggregates	suspension	0	
CC(C)C[C@H](NC(=O)[C@H](CC(C)C)NC(=O)[C@@H](N)CC(C)C)C(=O)N[C@@H](CO)C(=O)O [LLLS] (H-LLLS-OH)	sheet	gel	30000				GELATION ([2]; peptide concentration 30 mM): 1
N[C@@H](Cc1c[nH]c2ccccc12)C(=O)N[C@@H](Cc1ccccc1)C(=O)N[C@@H](Cc1c[nH]cn1)C(=O)N1CCC[C@H]1C(=O)O [WFHP] (H-WFHP-OH)			120000	aggregates	sol	0	
CC(C)C[C@H](N)C(=O)N[C@@H](Cc1c[nH]c2ccccc12)C(=O)N[C@@H](Cc1c[nH]c2ccccc12)C(=O)N[C@@H](Cc1ccccc1)C(=O)O [LWWF] (H-LWWF-OH)	aggregates	gel	30000				GELATION ([2]; peptide concentration 30 mM): 1
N[C@@H](Cc1ccccc1)C(=O)N[C@@H](Cc1ccccc1)C(=O)N[C@@H](Cc1ccccc1)C(=O)N[C@@H](Cc1ccccc1)C(=O)O [FFFF] (H-FFFF-OH)	sheet	gel	30000				GELATION ([2]; peptide concentration 30 mM): 1
CC(C)[C@H](NC(=O)[C@@H](N)Cc1ccc(O)cc1)C(=O)N[C@@H](Cc1ccccc1)C(=O)N[C@@H](C)C(=O)O [YVFA] (H-YVFA-OH)			120000	sphere	gel	1	
CC[C@H](C)[C@H](NC(=O)[C@@H](NC(=O)[C@@H](N)Cc1c[nH]c2ccccc12)[C@@H](C)O)C(=O)N[C@@H](Cc1ccccc1)C(=O)O [WTIF] (H-WTIF-OH)	fibre	gel	30000				morphology by TEM (in words) [1]: entangled nanofibers; GELATION ([2]; peptide concentration 30 mM): 1; hydrogel formation (in words) [2]: hydrogels
N[C@@H](Cc1ccccc1)C(=O)NCC(=O)N[C@@H](Cc1c[nH]c2ccccc12)C(=O)N[C@@H](Cc1c[nH]c2ccccc12)C(=O)O [FGWW] (H-FGWW-OH)			120000	sphere	precipitate	0	morphology by TEM (in words) [1]: aggregates with different sizes
CC(C)C[C@H](NC(=O)[C@H](C)NC(=O)[C@@H](N)C(C)C)C(=O)N[C@H](C(=O)O)C(C)C [VALV] (H-VALV-OH)			120000	aggregates	sol	0	EXP ([2]; experimental gelation result of the synthesized peptide): 0
CC(C)C[C@H](NC(=O)[C@H](C)NC(=O)[C@@H](N)Cc1c[nH]c2ccccc12)C(=O)N[C@@H](Cc1c[nH]c2ccccc12)C(=O)O [WALW] (H-WALW-OH)	fibre	gel	30000			1	
N[C@@H](Cc1c[nH]c2ccccc12)C(=O)N1CCC[C@H]1C(=O)N[C@@H](Cc1ccc(O)cc1)C(=O)N[C@@H](Cc1ccc(O)cc1)C(=O)O [WPYY] (H-WPYY-OH)			120000	sphere	precipitate	0	hydrogel formation (in words) [2]: cannot
CC[C@H](C)[C@H](NC(=O)[C@H](CC(C)C)NC(=O)[C@@H](NC(=O)[C@@H](N)C(C)C)[C@@H](C)CC)C(=O)O [VILI] (H-VILI-OH)			60000				Morphology ([1]; line of the table gives 60 mM): hybrid(sheet+fibre); State [2, 5]: gel; GELATION ([2]; peptide concentration 60 mM): 1
CC(C)[C@H](NC(=O)[C@@H]1CCCN1)C(=O)N[C@@H](Cc1ccccc1)C(=O)N[C@@H](Cc1c[nH]c2ccccc12)C(=O)O [PVFW] (H-PVFW-OH)			60000				Morphology ([1]; line of the table gives 60 mM): hybrid(needle+fibre); State [2, 5]: gel; GELATION ([2]; peptide concentration 60 mM): 1
